Source: ChEMBL document CHEMBL3132858, “6-Alkyl-, 6-aryl- or 6-hetaryl-7-deazapurine ribonucleosides as inhibitors of human or MTB adenosine kinase and potential antimycobacterial agents” (Medchemcomm, 2013)
Calls of active or inactive are those of the source. No cut-off for these calls is given here.

What was measured:
[1] = target: Adenosine kinase (Mycobacterium tuberculosis (strain CDC 1551 / Oshkosh)) (UniProt P9WID4); test: Activity of Mycobacterium tuberculosis ADK assessed as compound conversion to 5'-phosphate form incubated at 37 degC for 20 mins by HPLC method
Adenosine kinase [2] = target: Adenosine kinase (Mycobacterium tuberculosis (strain CDC 1551 / Oshkosh), UniProt P9WID4); test: Inhibition of Mycobacterium tuberculosis ADK using [3H]-adenosine by scintillation counting method
Adenosine kinase [3] = target: T1, Adenosine kinase (Homo sapiens, UniProt P55263); test: Inhibition of human ADK using [3H]-adenosine by scintillation counting method
Target sequence in this assay (P55263 whole entry): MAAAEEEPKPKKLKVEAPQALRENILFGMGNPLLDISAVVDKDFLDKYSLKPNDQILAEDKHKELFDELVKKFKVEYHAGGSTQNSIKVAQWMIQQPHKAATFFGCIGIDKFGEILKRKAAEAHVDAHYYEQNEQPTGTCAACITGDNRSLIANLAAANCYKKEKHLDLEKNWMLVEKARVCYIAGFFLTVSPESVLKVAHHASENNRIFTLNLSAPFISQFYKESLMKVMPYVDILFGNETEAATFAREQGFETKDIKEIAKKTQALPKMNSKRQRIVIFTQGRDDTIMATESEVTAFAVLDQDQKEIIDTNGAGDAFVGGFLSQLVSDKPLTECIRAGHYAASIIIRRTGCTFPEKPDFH

Adenosine kinase [4] = target: T1, Adenosine kinase; test: Activity of human ADK assessed as compound conversion to 5'-phosphate form incubated at 37 degC for 20 mins by HPLC method; set-up: concentration or dose not given beside the values
Target sequence in this assay (P55263 2-362 limits assumed): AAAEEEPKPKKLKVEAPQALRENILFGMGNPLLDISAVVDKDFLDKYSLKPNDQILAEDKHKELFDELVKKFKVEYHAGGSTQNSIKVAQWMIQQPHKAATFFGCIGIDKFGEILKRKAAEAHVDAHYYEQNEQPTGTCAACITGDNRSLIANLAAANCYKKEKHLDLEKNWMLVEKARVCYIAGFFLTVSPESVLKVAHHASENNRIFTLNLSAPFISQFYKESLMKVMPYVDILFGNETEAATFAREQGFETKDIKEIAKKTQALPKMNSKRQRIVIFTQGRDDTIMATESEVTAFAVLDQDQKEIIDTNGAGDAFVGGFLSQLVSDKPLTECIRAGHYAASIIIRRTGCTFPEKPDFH

[5] = Cytotoxicity against human BJ cells after 72 hrs by MTT assay; format: cell-based
[6] = Cytotoxicity against human MRC5 cells after 72 hrs by MTT assay; format: cell-based

Sequence of Adenosine kinase (Mycobacterium tuberculosis (strain CDC 1551 / Oshkosh), UniProt P9WID4) (P9WID4 whole entry): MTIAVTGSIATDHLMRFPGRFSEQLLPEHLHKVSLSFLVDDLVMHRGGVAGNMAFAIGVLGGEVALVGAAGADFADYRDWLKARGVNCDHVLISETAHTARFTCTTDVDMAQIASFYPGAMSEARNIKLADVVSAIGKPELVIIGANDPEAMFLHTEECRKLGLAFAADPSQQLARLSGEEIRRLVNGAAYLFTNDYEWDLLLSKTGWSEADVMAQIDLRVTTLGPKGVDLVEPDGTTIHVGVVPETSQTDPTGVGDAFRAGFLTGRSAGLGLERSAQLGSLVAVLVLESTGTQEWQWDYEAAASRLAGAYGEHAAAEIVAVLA
Sequence of Adenosine kinase (Mycobacterium tuberculosis (strain CDC 1551 / Oshkosh)) (P9WID4 2-324 limits assumed): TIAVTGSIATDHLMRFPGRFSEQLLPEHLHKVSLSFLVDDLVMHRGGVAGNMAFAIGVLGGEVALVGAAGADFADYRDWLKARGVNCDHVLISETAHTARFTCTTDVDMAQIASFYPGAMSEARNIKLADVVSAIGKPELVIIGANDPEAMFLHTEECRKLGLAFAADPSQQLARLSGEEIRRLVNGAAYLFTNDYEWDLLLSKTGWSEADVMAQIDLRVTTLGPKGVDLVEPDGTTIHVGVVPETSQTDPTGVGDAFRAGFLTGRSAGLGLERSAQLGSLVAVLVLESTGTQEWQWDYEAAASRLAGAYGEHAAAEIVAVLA

| Structure (SMILES) | Activity [1] | IC50 (Adenosine kinase [2]) | IC50 (Adenosine kinase [3]) | Activity (Adenosine kinase [4]) | CC50 at 72 h [5] | CC50 at 72 h [6] |
| --- | --- | --- | --- | --- | --- | --- |
| Cc1ncnc2c1ccn2[C@@H]1O[C@H](CO)[C@@H](O)[C@H]1O | inactive | 8800 nM | > 10 µM | 54% | 0.098 µM | 0.081 µM |
| OC[C@H]1O[C@@H](n2cc(Cl)c3c(-c4cccs4)ncnc32)[C@H](O)[C@@H]1O | inactive | 70 nM | 1.2 µM | 100% | 4.97 µM | > 50 µM |
| OC[C@H]1O[C@@H](n2ccc3c(-c4cccc5c4Oc4ccccc4S5)ncnc32)[C@H](O)[C@@H]1O | inactive | 1460 nM | 3.07 µM | – | > 50 µM | > 50 µM |
| OC[C@H]1O[C@@H](n2ccc3c(-c4cccc5c4oc4ccccc45)ncnc32)[C@H](O)[C@@H]1O | inactive | 2350 nM | 5.26 µM | – | > 50 µM | > 50 µM |
| CCCCCCCCCCCCCCCCCCOP(=O)(O)OC[C@H]1O[C@@H](n2ccc3c(-c4ccsc4)ncnc32)[C@H](O)[C@@H]1O | inactive | > 20000 nM | 6.35 µM | – | > 50 µM | > 50 µM |
| CCCCCCCCCCCCCCCCCCOP(=O)(O)OC[C@H]1O[C@@H](n2ccc3c(-c4ccoc4)ncnc32)[C@H](O)[C@@H]1O | inactive | > 20000 nM | 5.15 µM | – | 44.2 µM | > 50 µM |
| CCc1ncnc2c1ccn2[C@@H]1O[C@H](CO)[C@@H](O)[C@H]1O | inactive | 8100 nM | > 20 µM | – | 2.7 µM | 50 µM |
| OC[C@H]1O[C@@H](n2cc(F)c3c(-c4ccco4)ncnc32)[C@H](O)[C@@H]1O | inactive | 190 nM | 1.3 µM | 50% | 0.31 µM | 29 µM |
| OC[C@H]1O[C@@H](n2ccc3c(-c4ccn[nH]4)ncnc32)[C@H](O)[C@@H]1O | inactive | 59 nM | > 20 µM | 31% | 43.9 µM | 1.16 µM |
| OC[C@H]1O[C@@H](n2ccc3c(-c4ccsc4)ncnc32)[C@H](O)[C@@H]1O | inactive | 195 nM | > 10 µM | 56% | 21.3 µM | > 50 µM |
| OC[C@H]1O[C@@H](n2ccc3c(-c4c[nH]cn4)ncnc32)[C@H](O)[C@@H]1O | inactive | 780 nM | > 10 µM | 28% | 0.21 µM | > 50 µM |
| OCc1ncnc2c1ccn2[C@@H]1O[C@H](CO)[C@@H](O)[C@H]1O | inactive | > 5000 nM | > 10 µM | 26% | 0.34 µM | 0.28 µM |
| CCCCCCCCCCCCCCCCCCOP(=O)(O)OC[C@H]1O[C@@H](n2ccc3c(-c4cc5ccccc5o4)ncnc32)[C@H](O)[C@@H]1O | inactive | > 20000 nM | 2.9 µM | – | > 50 µM | > 50 µM |
| OC[C@H]1O[C@@H](n2cc(Cl)c3c(-c4ccco4)ncnc32)[C@H](O)[C@@H]1O | inactive | 110 nM | 0.29 µM | 77% | 37.2 µM | > 50 µM |
| OC[C@H]1O[C@@H](n2ccc3c(-c4cc5ccccc5[nH]4)ncnc32)[C@H](O)[C@@H]1O | inactive | 40 nM | 8.35 µM | – | > 50 µM | > 50 µM |
| OC[C@H]1O[C@@H](n2ccc3c(-c4cc5ccccc5s4)ncnc32)[C@H](O)[C@@H]1O | inactive | 7.5 nM | 0.3 µM | – | > 50 µM | > 50 µM |
| OC[C@H]1O[C@@H](n2ccc3c(Cc4ccccc4)ncnc32)[C@H](O)[C@@H]1O | inactive | > 20000 nM | > 20 µM | – | 36.9 µM | > 50 µM |
| CCCCCCCCCCCCCCCCCCOP(=O)(O)OC[C@H]1O[C@@H](n2ccc3c(-c4cccs4)ncnc32)[C@H](O)[C@@H]1O | inactive | > 20000 nM | 1.97 µM | – | – | – |
| OC[C@H]1O[C@@H](n2ccc3c(-c4cc[nH]c4)ncnc32)[C@H](O)[C@@H]1O | inactive | 300 nM | > 10 µM | 70% | 1.87 µM | 40.1 µM |
| OC[C@H]1O[C@@H](n2cc(Cl)c3c(-c4ccc(F)cc4)ncnc32)[C@H](O)[C@@H]1O | inactive | 400 nM | > 20 µM | – | 49.5 µM | > 50 µM |

| Structure (SMILES) | Activity [1] | IC50 (Adenosine kinase [2]) | IC50 (Adenosine kinase [3]) | Activity (Adenosine kinase [4]) | CC50 at 72 h [5] | CC50 at 72 h [6] |
| --- | --- | --- | --- | --- | --- | --- |
| OC[C@H]1O[C@@H](n2ccc3c(-c4ccccn4)ncnc32)[C@H](O)[C@@H]1O | inactive | 120 nM | > 10 µM | 39% | 1.74 µM | > 50 µM |
| CCCCCCCCCCCCCCCCCCOP(=O)(O)OC[C@H]1O[C@@H](n2ccc3c(-c4ccccc4)ncnc32)[C@H](O)[C@@H]1O | inactive | > 20000 nM | 4.4 µM | – | > 50 µM | > 50 µM |
| OC[C@H]1O[C@@H](n2cc(Cl)c3c(-c4ccoc4)ncnc32)[C@H](O)[C@@H]1O | inactive | 300 nM | 3.4 µM | 100% | 21.6 µM | > 50 µM |
| OC[C@H]1O[C@@H](n2ccc3c(-c4ccc[nH]4)ncnc32)[C@H](O)[C@@H]1O | inactive | 73 nM | > 10 µM | 40% | > 50 µM | > 50 µM |
| OC[C@H]1O[C@@H](n2cc(Cl)c3c(-c4ccccc4)ncnc32)[C@H](O)[C@@H]1O | inactive | 220 nM | > 10 µM | 29% | 44.5 µM | > 50 µM |
| OC[C@H]1O[C@@H](n2cc(F)c3c(-c4ccsc4)ncnc32)[C@H](O)[C@@H]1O | inactive | 63 nM | > 10 µM | 51% | 0.62 µM | 50 µM |
| CCCCCCCCCCCCCCCCCCOP(=O)(O)OC[C@H]1O[C@@H](n2ccc3c(-c4ccco4)ncnc32)[C@H](O)[C@@H]1O | inactive | > 20000 nM | 2.4 µM | – | > 50 µM | 45.3 µM |
| OC[C@H]1O[C@@H](n2ccc3c(-c4ccoc4)ncnc32)[C@H](O)[C@@H]1O | inactive | 320 nM | > 10 µM | 32% | 1.2 µM | 45.4 µM |
| OC[C@H]1O[C@@H](n2ccc3c(-c4nccs4)ncnc32)[C@H](O)[C@@H]1O | inactive | 23 nM | > 20 µM | 41% | 0.26 µM | 37 µM |
| OC[C@H]1O[C@@H](n2ccc3c(-c4ccc(F)cc4)ncnc32)[C@H](O)[C@@H]1O | inactive | 80 nM | > 10 µM | 17% | > 50 µM | > 50 µM |
| OC[C@H]1O[C@@H](n2cc(F)c3c(-c4ccccc4)ncnc32)[C@H](O)[C@@H]1O | inactive | 200 nM | > 10 µM | 17% | > 50 µM | > 50 µM |
| OC[C@H]1O[C@@H](n2ccc3c(-c4cccs4)ncnc32)[C@H](O)[C@@H]1O | inactive | 46 nM | > 5 µM | – | 0.31 µM | > 50 µM |
| OC[C@H]1O[C@@H](n2ccc3c(-c4ccc[se]4)ncnc32)[C@H](O)[C@@H]1O | inactive | 30 nM | > 10 µM | 43% | 1.52 µM | > 50 µM |
| OC[C@H]1O[C@@H](n2ccc3c(-c4cccc5c4sc4ccccc45)ncnc32)[C@H](O)[C@@H]1O | inactive | 150 nM | 15.4 µM | – | > 50 µM | 43.8 µM |
| OC[C@H]1O[C@@H](n2ccc3c(-c4cccnc4)ncnc32)[C@H](O)[C@@H]1O | inactive | 1000 nM | > 10 µM | – | 50 µM | > 50 µM |
| OC[C@H]1O[C@@H](n2cc(F)c3c(-c4c[nH]cn4)ncnc32)[C@H](O)[C@@H]1O | inactive | 1000 nM | > 20 µM | 11% | > 50 µM | > 50 µM |
| OC[C@H]1O[C@@H](n2ccc3c(-c4cc5ccccc5o4)ncnc32)[C@H](O)[C@@H]1O | inactive | 14.5 nM | 2.1 µM | – | > 50 µM | > 50 µM |
| OC[C@H]1O[C@@H](n2cc(F)c3c(-c4ccoc4)ncnc32)[C@H](O)[C@@H]1O | inactive | 150 nM | > 10 µM | – | 0.35 µM | 15.4 µM |
| COc1ccc(-c2ncnc3c2ccn3[C@@H]2O[C@H](CO)[C@@H](O)[C@H]2O)cc1 | inactive | 58 nM | > 10 µM | – | > 50 µM | > 50 µM |
| OC[C@H]1O[C@@H](n2ccc3c(-c4ccccc4)ncnc32)[C@H](O)[C@@H]1O | inactive | 120 nM | > 10 µM | – | 44.1 µM | > 50 µM |
